Each compound was assayed on Plasmodium falciparum (assay: GSK_TCMDC: Inhibition of Plasmodium falciparum 3D7 in whole erythrocytes, using parasite LDH activity as an index of growth.). Details: Plasmodium falciparum, 3D7.
Assay type: functional, organism-based
Compound `CC(C)N1CCC(N(Cc2ccc(-c3ccc(Cl)cc3)cc2)C(=O)Cn2c(CCc3cccc(F)c3F)cc(=O)c3ccccc32)CC1` has an XC50 of 929 nM. `CCNc1cc(C(=O)N[C@@H](Cc2ccccc2)[C@H](O)CNCCCc2ccc(OC)cc2)cc(N2CCCC2=O)c1` was tested, and the XC50 was 556 nM. Compound `Cn1cncc1CCN(Cc1ccc(-c2ccc(C(F)(F)F)cc2)cc1)C(=O)Cn1c(CCc2cccc(F)c2F)cc(=O)c2cccnc21` has an XC50 of 853 nM. Work on `CN1CCC(NCc2cccc(-c3ccc(S(=O)(=O)NCc4ccccc4)c(F)c3)c2)CC1` yielded an XC50 of 325 nM. For `COc1cc2nc(N3CCC(CNC(=O)c4cc5ccccc5s4)CC3)nc(N)c2cc1OC`, the XC50 was 293 nM. `COc1ccc2nccc([C@@H](O)CN3CCC(NCc4cc5oc(=O)n(C)c5cc4F)CC3)c2c1` was tested, and the XC50 was 661 nM. For `Cc1cccc2nc(-c3ccc(-c4ccc(CN5CCN(CCO)CC5)cc4)s3)[nH]c12`, the XC50 was 712 nM. For `C=CCN1Cc2c(O)cccc2C(c2ccc(O)c(O)c2)C1` (stereo not given), the XC50 was 670 nM. Compound `CCCCc1cc(NCc2ccncc2)nc(Nc2ccc(OC)cc2)n1` has an XC50 of 1060 nM. `COc1ccc(NC(=O)c2ccc(NC(=O)c3ccc(Cl)cc3)cc2)cc1N1CCN(C)CC1` showed an XC50 of 849 nM. `CC(NC(=O)c1ccc(O)c(-c2ccc(Cl)c(Cl)c2)c1)C(=O)NCCN1CCCC1` (stereo not given) was tested, and the XC50 was 759 nM. `O=C(Nc1ccc(-c2nc3ccccc3[nH]2)cc1)C1CCCN(C2CCC2)C1` (stereo not given) gave an XC50 of 1350 nM. Compound `CCCN(CCCCCCNCCc1ccc(Cl)cc1)CCc1ccc(O)c(O)c1` has an XC50 of 943 nM. Work on `CC(C)(C)Oc1ccc(NC(=O)c2ccccc2O)cc1` yielded an XC50 of 1010 nM. Work on `C=C(NC(=O)C1CCCCC1)C(=O)OC` yielded an XC50 of 849 nM. Work on `Fc1ccc2[nH]c(-c3cccc(-c4ccc(CNCCN5CCNCC5)cc4)c3)nc2c1` yielded an XC50 of 904 nM. `N#Cc1ccc2c(c1)CCN(CCC1CCC(NC(=O)/C=C/c3ccc4ccccc4c3)CC1)CC2` (stereo not given) gave an XC50 of 724 nM. In the case of `O=S(=O)(NCCN1CCCC1)c1ccc(-c2ccc(CNCc3ccccc3)cc2)cc1`, the XC50 is reported as 775 nM. `Cc1[nH]c2ccc(O)cc2c1C1CCN(CC2CCC(NC(=O)/C=C/c3c(Cl)cccc3Cl)CC2)CC1` (stereo not given) was tested, and the XC50 was 817 nM. Work on `COC(=O)c1ccc2nc(-c3cc(-c4cccc(-c5ccccc5)c4)cnc3N)[nH]c2c1` yielded an XC50 of 211 nM. Work on `Cc1ccc(CNC(=O)c2cc3c(=O)n4ccccc4nc3n(CCCN3CCOCC3)c2=N)cc1` yielded an XC50 of 1090 nM. Compound `CCCc1cc(OC)c(CC2c3cc(O)c(Cl)cc3CCN2C)cc1OC` (stereo not given) has an XC50 of 575 nM. Work on `C[C@H](NC(=O)c1c(OC2CN(C(c3ccccc3)c3ccccc3)C2)c(-c2ccccc2)nc2ccccc12)C1CCCCC1` yielded an XC50 of 978 nM. `CC(=O)Nc1ccc(OCCN(CC(C)C)c2ccc(C#N)c(C(F)(F)F)c2)c(Cl)c1` was tested, and the XC50 was 786 nM. Compound `CC(C)(C)c1ccc(C(=O)NC2CCC(CCN3CCc4ccc(S(C)(=O)=O)cc4CC3)CC2)cc1C(F)(F)F` (stereo not given) has an XC50 of 1220 nM. `O=C(Nc1cccc(CN2CCCN(Cc3ccc(O)cc3)CC2)c1)c1ccc2ccccc2n1` gave an XC50 of 938 nM. Compound `O=C(/C=C/c1ccc(C(F)(F)F)cc1)NCCCCCN1CCC(c2c[nH]c3ccccc23)CC1` has an XC50 of 683 nM. For `COc1ccc2nccc([C@@H](O)CN3CCC(NC(=O)C(c4ccsc4)N4CCN(c5ccccc5)CC4)CC3)c2c1` (stereo not given in full), the XC50 was 442 nM. `COc1cccc2c1CCN(CCN1CCC(CNC(=O)c3ccc(-c4ccc(C#N)cc4)cc3)CC1)C2` gave an XC50 of 758 nM. Compound `CC(=O)Nc1nc(C(=O)Nc2cccc(-c3ccc(-c4nc5cc(F)ccc5[nH]4)cc3)c2)cs1` has an XC50 of 288 nM. In the case of `CN(C)c1ccc(Br)c(Br)c1`, the XC50 is reported as 975 nM. `CC(C(=O)OCCOCn1cnc2c(=O)[nH]c(N)nc21)N(C)C(=O)OC(C)(C)C` (stereo not given) showed an XC50 of 1000 nM. `Cc1c(C)n(C2CCCC2)c2ncnc(OC3CCN(CC(=O)NC4CC4)CC3)c12` showed an XC50 of 790 nM. With `O=C(NCc1cccc(F)c1)Nc1cccc(-c2cccc(-c3nc4ccccc4[nH]3)c2)c1` the XC50 was 389 nM. In the case of `COc1ccc(C2=C(Nc3ccc4oc5ccccc5c4c3)c3ccccc3C2=O)cc1`, the XC50 is reported as 830 nM. With `CNC(=O)COc1cc(C)c(C2CCN(CCCCNC(=O)c3ccc(-c4ccc(C(F)(F)F)cc4)cc3)CC2)cc1C` the XC50 was 868 nM. `O=C(COc1ccc(Cl)c(Cl)c1)NCCCCCN1CCCN(C(=O)Nc2ccc(Cl)c(Cl)c2)CC1` showed an XC50 of 1730 nM. For `COc1cc(F)c2nccc([C@@H](O)CN3CCC(NCc4ccc5c(n4)NC(=O)CS5)C(F)C3)c2c1` (stereo not given in full), the XC50 was 1170 nM. For `CC1CN=C(Nc2ncc(Cl)cc2Cl)N1` (stereo not given), the XC50 was 237 nM. Compound `COc1cccc(CCNC(C)Cc2ccc(OCCCCOc3ccccc3)cc2)c1` (stereo not given) has an XC50 of 741 nM. For `O=C(Nc1ccc(OC(F)(F)F)cc1)NC1CCN(c2ccnc3ccccc23)C1` (stereo not given), the XC50 was 244 nM. Work on `FC(F)(F)COc1c(CNCCCCCCNCc2ccc3ccccc3c2OCC(F)(F)F)ccc2ccccc12` yielded an XC50 of 761 nM. Work on `CCNc1cc(C(=O)N[C@@H](Cc2ccccc2)[C@H](O)CNCc2cccc(OC)c2C)cc(N2CCCCS2(=O)=O)c1` yielded an XC50 of 518 nM. Compound `Cc1cccc2nc(-c3cccc(-c4cccc(NC(=O)Nc5ccsc5)c4)c3)[nH]c12` has an XC50 of 170 nM. Compound `O=C(N[C@@H](Cc1ccccc1)[C@H](O)CNCCC(F)(F)F)c1cccc(CCC2CC2)c1` has an XC50 of 1020 nM. `O=C(/C=C/c1ccc(Cl)c(Cl)c1)N1CCC(CCN2CCC(c3c[nH]c4ccccc34)CC2)CC1` was tested, and the XC50 was 602 nM. In the case of `CC(=O)Nc1cccc(C(=O)Nc2cccc(-c3cccc(-c4nc5ccccc5[nH]4)c3)c2)c1`, the XC50 is reported as 594 nM. `Cc1cc(N[C@@H](Cc2ccccc2)C(=O)NCc2cccs2)nc(NCCc2ccc(F)cc2)n1` was tested, and the XC50 was 854 nM. `CCCCN(CCCC)CCNC(=O)c1cccc(NC(=O)N2CCc3cc(SC)c(C(F)(F)F)cc32)c1` showed an XC50 of 809 nM. With `Cc1cc(OCC2CCN(c3ccc(C(=O)NC4CC4)cn3)CC2)ccc1F` the XC50 was 868 nM. `CS(=O)(=O)Nc1cccc(-c2cnc3[nH]cc(-c4ccc(CN)cc4)c3c2)c1` showed an XC50 of 986 nM. With `Cc1cccc2nc(-c3ccc(-c4cccc(CNCCN5CCNCC5)c4)cc3)[nH]c12` the XC50 was 1230 nM. With `CCS(=O)(=O)c1ccc(-c2cnc3[nH]cc(-c4ccc(N)cc4)c3c2)cc1` the XC50 was 851 nM. With `COc1ccc(-c2nc(-c3ccc([N+](=O)[O-])cc3)no2)cc1OC` the XC50 was 409 nM. Work on `O=C(NCCN1CCCC1)c1cccc(-c2ccc(-c3nc4cc(C(F)(F)F)ccc4[nH]3)cc2)c1` yielded an XC50 of 752 nM. Compound `COc1ccc(C)c(Nc2ccnc(Nc3ccc(-c4cnc[nH]4)cc3)n2)c1` has an XC50 of 1370 nM. In the case of `Nc1cccc(CNCc2ccc(-c3ccc(-c4nc5cc(C(F)(F)F)ccc5[nH]4)s3)cc2)c1`, the XC50 is reported as 438 nM. Work on `COc1c(C2CCN(CCCCNC(=O)c3ccc(-c4ccc(C#N)cc4)cc3)CC2)cc(Cl)c2c1CCCC2` yielded an XC50 of 776 nM. `Cc1cccc2nc(-c3cccc(-c4ccc(CNCCc5ccncc5)cc4)c3)[nH]c12` showed an XC50 of 119 nM. For `CCOc1ccc(N2CCN(CCCCNC(=O)c3ccc(NC(=O)c4ccc(Cl)cc4)cc3)CC2)c(OCC)c1`, the XC50 was 567 nM. For `COc1ccc(CN2CCN(CCOC(c3ccc(F)cc3)c3ccc(F)cc3)CC2)c(O)c1`, the XC50 was 733 nM. Work on `COc1ccc2c(=NN=Cc3ccccc3Cl)cc(C)[nH]c2c1` yielded an XC50 of 373 nM. Compound `Clc1ccc(OCCC2CCN(CCCCCCCN3CCC(CCOc4ccc(Cl)c(Cl)c4)CC3)CC2)cc1Cl` has an XC50 of 624 nM. With `Cc1noc(C)c1-c1cccc(CNCc2cccc(-c3cccc(-c4nc5ccccc5[nH]4)c3)c2)c1` the XC50 was 377 nM. `N=c1n(CCN2CCCCC2)c2ccccc2n1CC(=O)c1cccc([N+](=O)[O-])c1` gave an XC50 of 879 nM. Work on `CC(C)(C)C(=O)Oc1ccc(CC2NCCc3cc(OC(=O)C(C)(C)C)c(OC(=O)C(C)(C)C)cc32)cc1OC(=O)C(C)(C)C` (stereo not given) yielded an XC50 of 419 nM. Work on `O=C(CCc1cccc(O)c1)NCC(NCCCNc1cc(=O)c2ccccc2[nH]1)c1cc(Br)cc(Br)c1` (stereo not given) yielded an XC50 of 1170 nM. Work on `NS(=O)(=O)c1cccc(N/C=C2\C(=O)Nc3ccc(S(=O)(=O)Cc4c(Cl)cccc4Cl)cc32)c1` yielded an XC50 of 720 nM. For `COc1ccc2c(NN=Cc3ccccc3Cl)ccnc2c1`, the XC50 was 622 nM. `N#Cc1ccc2c(c1)CCN(CCC1CCC(NC(=O)/C=C/c3ccc(F)c4ccccc34)CC1)CC2` (stereo not given) gave an XC50 of 844 nM. With `COc1cc(C(=O)Nc2nc3ccccc3[nH]2)ccc1OCC(=O)Nc1cccc(C(F)(F)F)c1` the XC50 was 738 nM. With `CC(=O)N(C)c1cccc(C(=O)Nc2cccc(-c3cccc(-c4nc5cccc(C)c5[nH]4)c3)c2)c1` the XC50 was 617 nM. For `CCN(CC)Cc1cc(NC(=O)c2ccccc2O)ccc1Oc1ccc(Cl)cc1`, the XC50 was 827 nM. `COc1ccccc1CNc1nc(Nc2ccccc2C)nc2ccccc12` was tested, and the XC50 was 806 nM. `N#Cc1ccc(N(CCNS(=O)(=O)c2cc(Br)c(Cl)s2)Cc2ccccc2C(F)(F)F)cc1C(F)(F)F` showed an XC50 of 857 nM. `CCN(C(=O)CSc1cc(C)c2cc(C)cc(C)c2n1)C1CCS(=O)(=O)C1` (stereo not given) showed an XC50 of 667 nM. `COc1cccc2c(C)cc(NCc3ccc(Cl)cc3)nc12` showed an XC50 of 860 nM. `COc1cc2nc(NCCCO)nc(Nc3ccc(Oc4ccccc4)cc3)c2cc1OC` showed an XC50 of 145 nM. `O=[N+]([O-])c1cccc(CNC2CCN(Cc3ccc(Cl)c(Cl)c3)CC2)c1` gave an XC50 of 456 nM. `CCOC(=O)Nc1cc(-c2csc(N=C(N)N)n2)cc([N+](=O)[O-])c1` was tested, and the XC50 was 816 nM. `Cc1nc2nc(N)nc(N)c2c(C)c1Cc1ccc(Cl)cc1` showed an XC50 of 216 nM. With `COc1ccc2[nH]ccc(=NN=Cc3ccc(F)cc3)c2c1` the XC50 was 720 nM. `O=C(Nc1cccc(-c2nn3ccccc3c2-c2ccnc(Nc3ccccc3)n2)c1)c1cc(F)ccc1F` was tested, and the XC50 was 953 nM. With `O=C(NCc1ccc(Cl)c(Cl)c1)[C@H]1CNCCN1C(=O)c1ccccc1` the XC50 was 955 nM. With `CNC(=O)C(NC(=O)c1ccccc1C(=O)OC)c1ccccc1` (stereo not given) the XC50 was 556 nM. `CCC(C)(C)C1CCc2[nH]c3ccccc3c(=O)c2C1` (stereo not given) gave an XC50 of 384 nM. `Cc1nnc2c(NC(=O)NC3CCCC3)cc3cc(-c4ccc(CN5CCN(C)CC5)cc4)ccc3n12` was tested, and the XC50 was 1020 nM. With `CSc1ccc(CN2CCC(CNC(=O)c3cc(-c4ccccc4F)cs3)C2)cc1` (stereo not given) the XC50 was 1140 nM. With `Cc1cccc2nc(-c3ccc(-c4cccc(C(=O)N5CCCCC5C(C)O)c4)s3)[nH]c12` (stereo not given) the XC50 was 636 nM. Work on `COc1cc2c(Nc3cccc(NC(=O)c4ccccc4)c3)ncnc2cc1OCCCN1CCOCC1` yielded an XC50 of 155 nM. Compound `Cc1ccc(NC(=O)Nc2ccc(Cn3ncc(N4CCCNCC4)c(Cl)c3=O)cc2)cc1` has an XC50 of 918 nM. `COc1ccc(NC(=O)Nc2ccc(-c3ccccc3)cc2Cl)cc1N1CCN(C)CC1` showed an XC50 of 875 nM. For `CCOC(=O)c1c(C)n(-c2ccccc2)c2ccc(OC(=O)c3ccc(S(=O)(=O)N(CC)CC)cc3)cc12`, the XC50 was 748 nM. In the case of `CC(C)CC1(C(=O)OC(C)(C)C)CC(C(=O)OC(C)(C)C)C(c2cccs2)N1C(=O)c1ccc(C(C)(C)C)cc1` (stereo not given), the XC50 is reported as 137 nM. With `O=C(N[C@@H](Cc1ccccc1)C(=O)NC1CCCCC1)c1ccc(O)c(-c2cccc(C(F)(F)F)c2)c1` the XC50 was 809 nM.

Source: ChEMBL document CHEMBL1157539, “Thousands of chemical starting points for antimalarial lead identification” (Nature, 2010)
